“And” between values parts separate entries of the source, which are not always exact repeats. Equal values may be shown once. “Also recorded” adds a separate entry of the source.
Experiments:
R493X progranulin [1] = assay: Read-through of progranulin R493X nonsense mutation in transfected N2A cells (FLAG Western blot); format: cell-based, human; conditions: for rescued R493X expression / read-through efficiency as % of wild-type progranulin (summary statement): N2A cell culture, conditions not restated; for read-through, FLAG band intensity as percentage of WT progranulin: dose response, maximal concentration 2000 μg/ml; for read-through, FLAG band intensity as percentage of WT progranulin / read-through of R493X progranulin (FLAG-positive bands in Western blot): 24 hours; for read-through of R493X progranulin (FLAG-positive bands in Western blot): N2A cells transfected with R493X progranulin, two concentrations of each compound
Text: (§1) The WT progranulin plasmid with a C-terminal FLAG tag (pC-Flag-PGRN-WT) was purchased from Sino Biological Inc. (Cat. HG10826-CF). Three nonsense mutations, Q125X, R229X and R493X, were generated using Q5 site-directed mutagenesis kit (New England Biolabs Inc., Cat. E0554S) to introduce a single nucleotide substitution in the WT progranulin gene (FIG. 1A). The WT progranulin with an N-terminal HA tag (HA-PGRN) was also generated by subcloning using the p3xHA vector (58) and HindIII and BamHI sites.
(§2) N2A cells were maintained in DMEM (Sigma, D5796) supplemented with 10% fetal bovine serum, 100 unit/mL penicillin, and 100 μg/mL streptomycin. Transient transfection was performed using Lipofectamine 2000 (Invitrogen, Life Technologies, Grand Island, N.Y., USA). […] was used for each well of 6-well plate unless otherwise described. After 6 hours transfection, fresh medium containing aminoglycoside at indicated concentrations was added to cells. Cells were applied to following experiments after exposed to drugs at certain time points. All cells were kept in a humidified incubator at 37° C. under 5% CO2/95% air.
Eleven aminoglycosides were tested in this study: G418 (Sigma-Aldrich, Cat. 4727878001), gentamicin (Sigma-Aldrich, Cat. G1397), Kanamycin (Gold Biotechnology, Cat. K-120-25), Streptomycin (Sigma-Aldrich, Cat. S9137), Amikacin (Alta Aesar, Cat. J67496), Tobramycin (Alta Aesar, Cat. J62995), Apramycin (Sigma-Aldrich, Cat. A2024), Neomycin B (Sigma-Aldrich, Cat. N6386), Netilmicin (Alta Aesar, Cat. J66302), Paromomycin (Alta Aesar, Cat. J61274), Sisomicin (Sigma-Aldrich, Cat. S7796). PTC124 was purchased from Med Chem Express (Cat. 775304-57-9).
Cells were lysed in RIPA buffer (Millipore Sigma, Cat. 20-188), centrifuged at 1000 g for 10 mins to remove debris, and then subjected to SDS electrophoresis. After electrophoresis, gels were proceeded for transferring onto nitrocellulose membranes. The membranes were then blocked with 5% milk in TBST (100 mM TRIS-HCl, pH7.5, 0.9% NaCl, 0.1% Tween-20) and incubated with indicated primary antibodies in the same solution. All immunoblotting images were acquired using a BioRad ChemiDoc MP system.
(§3) WT progranulin and three plasmids each with a single nonsense mutation (Q125X, Y229X, or R493X) and a C-terminal Flag tag (FIG. 1A) were constructed. A full-length protein must be generated for the FLAG to be detected, thus a truncated progranulin will not be detected by FLAG Western blotting. If read-through of the progranulin PTC occurs, then progranulin will be detectable by FLAG Western blotting.
R493X, which is the most common nonsense mutation in progranulin-mediated familial FTD (8, 31), was chosen to test whether aminoglycosides could induce read-through. N2A cells were transfected with the indicated plasmid, allowed to recover for 6 hours, and fresh media containing the aminoglycoside at the indicated concentrations was added to the cells for 24 hours. Cells were lysed and analyzed by Western blotting to determine the amount of progranulin protein. […] No signal was detected in lysate from cells transfected with R493X in the absence of any compounds, serving as a negative control. The FLAG-tagged WT progranulin was included as a positive control to define the expected progranulin-FLAG amount. […] It is noted that G418 induced a stronger effect than gentamicin.
A series of G418 and gentamicin concentrations were tested to examine the dose response of the read-through effect. N2A cells were transfected with the R493X progranulin plasmid, allowed to recover for 6 hours, fresh media containing either G418 or gentamicin at 100, 500, 1000 or 2000 μg/ml was added to cells for 24 hours. Cells were then lysed and lysates analyzed by Western blotting. The read-through was dose-dependent with the highest progranulin-FLAG signal corresponding to the highest concentration of compound (FIG. 2A). […]

R493X progranulin [2] = assay: as above; format: cell-based, human; conditions: time course, 1000 μg/ml G418, 12 hours
R493X progranulin mRNA = assay: Full-length progranulin R493X mRNA level in N2A cells (qPCR); format: cell-based, human; conditions: with G418 treatment, qPCR (FIG. 5)
Protocol: N2A cells were exposed to G418 treatment for 24 hours with indicated concentrations after transfection. Primers specific for full length PGRN mRNA were used for qPCR. All results were normalized to full length WT progranulin in non-treated cells. N.S.: no significance. **, p<0.01; ***, p<0.001.
Total RNA was extracted with Aurum total RNA mini kit (BioRad, Cat. 732-6820), and cDNA was generated with SuperScript III first-strand synthesis system for RT-PCR (Invitrogen, Cat. 18080-051). Quantitive PCR was performed using SYBR Green (ThermoScientific, Cat. 4309155). Beta-actin primers: forward 5′-AGAGCTATGAGCTGCCTGAC-3′ (SEQ ID NO: 1); reverse 5′-GGATGTCAACGTCACACTTC-3′(SEQ ID NO: 2). Primers used for full length progranulin mRNA (including flag encoding sequence) is: forward 5′-CGTGAAGGCTTGATCCTGCGAGA-3′ (SEQ ID NO: 3), reverse 5′-CTTATCGTCATCCTTGTAATC-3′ (SEQ ID NO: 4). Annealing temperature for both beta-actin and progranulin qPCR reaction were 60° C.
In addition to inducing read-through, it has been reported that aminoglycosides can also stabilize mRNAs, which could enhance the read-through effect (35, 36). Therefore, qPCR was used to determine the mRNA levels in the absence and presence of G418.

Q125X progranulin = assay: Read-through of progranulin Q125X nonsense mutation in transfected N2A cells (FLAG Western blot); format: cell-based, human; conditions: 24 hours
Text: as §1
(§4) N2A cells were maintained in DMEM (Sigma, D5796) supplemented with 10% fetal bovine serum, 100 unit/mL penicillin, and 100 μg/mL streptomycin. […]
as §3
(§5) Whether G418 or gentamicin could induce read-through of two additional progranulin nonsense mutations (Q125X or Y229X) and a FUS nonsense mutation R495X that has been identified in juvenile patients of the related neurodegenerative disease ALS was also tested.

R495X FUS = assay: Read-through of FUS R495X nonsense mutation in transfected N2A cells (FLAG Western blot); format: cell-based; conditions: three concentrations, 24 hours
Protocol: Examination of G418 on the R495X mutation of FUS responsible for familial ALS. WT or R495X FUS was tagged with FLAG at the N-terminus. N2A cells were transfected with WT or R495X FUS, allowed to recover, and treated with three concentrations of G418 for 24 hours. Cells were harvested and cell lysates were subjected to SDS-PAGE and Western analysis using anti-FLAG (top) and anti-actin (lower) antibodies. The slightly higher band is WT FUS and the lower band is R495X truncated FUS.
as §2, with “air. […]” for “air.”
as §5

LAMB3 PTC = conditions: reported (ref. 27); cited from earlier work
Y229X progranulin = assay: Read-through of progranulin Y229X nonsense mutation in transfected N2A cells (FLAG Western blot); format: cell-based, human; conditions: 24 hours
Text: as §1, §4, §3, §5

In the case of `CN[C@@H]1[C@@H](O)[C@@H](O[C@@H]2[C@@H](O)[C@H](O[C@H]3O[C@H]([C@@H](C)O)[C@@H](O)[C@H](O)[C@H]3N)[C@@H](N)C[C@H]2N)OC[C@]1(C)O` [G418], the “rescued R493X expression / read-through efficiency as % of wild-type progranulin (summary statement)” value (R493X progranulin [1]) is reported as about 50%, the “read-through, FLAG band intensity as percentage of WT progranulin” value (R493X progranulin [1]) is reported as 33.8% and > 30% and the “read-through as % of the WT control” value (R493X progranulin [2]) is reported as “≈ 5%”. The “mRNA level of R493X as % of WT progranulin” value (R493X progranulin mRNA) was about 60%.
With `O=C(O)c1cccc(-c2noc(-c3ccccc3F)n2)c1` [PTC124] the “read-through of R493X progranulin (FLAG-positive bands in Western blot)” value (from here on “read-through of R493X progranulin”) (R493X progranulin [1]) was “did not have any detectable read-through effect”.
With `NCC[C@H](O)C(=O)N[C@@H]1C[C@H](N)[C@@H](O[C@H]2O[C@H](CN)[C@@H](O)[C@H](O)[C@H]2O)[C@H](O)[C@H]1O[C@H]1O[C@H](CO)[C@@H](O)[C@H](N)[C@H]1O` [amikacin] the “read-through of R493X progranulin” value (R493X progranulin [1]) was “did not have any detectable read-through effect”.
In the case of `CN[C@@H]1[C@@H](O[C@H]2O[C@H](CO)[C@@H](N)[C@H](O)[C@H]2O)OC2C[C@@H](N)[C@@H](O[C@H]3[C@H](O)[C@@H](O)[C@H](N)C[C@@H]3N)OC2[C@@H]1O` (some centres unmarked) [apramycin], the “read-through of R493X progranulin” value (R493X progranulin [1]) is reported as “did not have any detectable read-through effect”.
For `NC[C@@H]1O[C@H](O[C@H]2[C@@H](O)[C@H](O[C@@H]3[C@@H](O)[C@H](N)C[C@H](N)[C@H]3O[C@H]3O[C@H](CN)[C@@H](O)[C@H](O)[C@H]3N)O[C@@H]2CO)[C@H](N)[C@@H](O)[C@@H]1O` [neomycin B], the “read-through of R493X progranulin” value (R493X progranulin [1]) was “did not have any detectable read-through effect”.
For `CCN[C@@H]1C[C@H](N)[C@@H](O[C@H]2OC(CN)=CC[C@H]2N)[C@H](O)[C@H]1O[C@H]1OC[C@](C)(O)[C@H](NC)[C@H]1O` [netilmicin], the “read-through of R493X progranulin” value (R493X progranulin [1]) was “did not have any detectable read-through effect”.
For `NC[C@@H]1O[C@H](O[C@H]2[C@@H](O)[C@H](O[C@@H]3[C@@H](O)[C@H](N)C[C@H](N)[C@H]3O[C@H]3O[C@H](CO)[C@@H](O)[C@H](O)[C@H]3N)O[C@@H]2CO)[C@H](N)[C@@H](O)[C@@H]1O` [paromomycin], the “read-through of R493X progranulin” value (R493X progranulin [1]) was “did not have any detectable read-through effect”.
For `CN[C@@H]1[C@@H](O)[C@@H](O[C@@H]2[C@@H](O)[C@H](O[C@H]3OC(CN)=CC[C@H]3N)[C@@H](N)C[C@H]2N)OC[C@]1(C)O` [sisomicin], the “read-through of R493X progranulin” value (R493X progranulin [1]) was “did not have any detectable read-through effect”.
For `[H]/N=C(/N)N[C@H]1[C@H](O)[C@@H](O)[C@H](O[C@@H]2O[C@@H](C)[C@](O)(C=O)[C@H]2O[C@@H]2O[C@@H](CO)[C@H](O)[C@@H](O)[C@@H]2NC)[C@@H](N/C(N)=N\[H])[C@@H]1O` [streptomycin], the “read-through of R493X progranulin” value (R493X progranulin [1]) was “did not have any detectable read-through effect”.
In the case of `NC[C@H]1O[C@H](O[C@H]2[C@H](O)[C@@H](O[C@H]3O[C@H](CO)[C@@H](O)[C@H](N)[C@H]3O)[C@H](N)C[C@@H]2N)[C@H](N)C[C@@H]1O` [tobramycin], the “read-through of R493X progranulin” value (R493X progranulin [1]) is reported as “did not have any detectable read-through effect”.
In the case of gentamicin, the “rescued R493X expression / read-through efficiency as % of wild-type progranulin (summary statement)” value (R493X progranulin [1]) is reported as “less than 10%”, the “read-through of R493X progranulin” value (R493X progranulin [1]) is reported as “induced FLAG bands; also recorded: induced read-through” and the “read-through, FLAG band intensity as percentage of WT progranulin” value (R493X progranulin [1]) is reported as 8.6%. The “read-through of Q125X progranulin (full-length protein by FLAG antibody)” value (Q125X progranulin) was “did not induce read-through”, the “read-through of Q125X progranulin (full-length protein by FLAG antibody)” value (Q125X progranulin; listed as Gentamicin) was “no readthrough effect” and the “read-through of FUS R495X (full-length protein)” value (R495X FUS) was “did not induce read-through”. The “read-through of FUS R495X (full-length protein)” value (R495X FUS; listed as Gentamicin) was “did not induce readthrough”, the “read-through of the LAMB3 PTC” value (LAMB3 PTC) was 30-50% and the “read-through of Y229X progranulin (full-length protein by FLAG antibody)” value (Y229X progranulin) was “did not induce read-through”. For the same molecule, the “read-through of Y229X progranulin (full-length protein by FLAG antibody)” value (Y229X progranulin; listed as Gentamicin) was “no readthrough effect”.

— patent US11560559B2, “Inducing production of full-length progranulin (GRN) from nucleotides including mutations containing a premature stop codon (PTC)” (University of Kentucky Research Foundation, priority 2018, dated 2023)
